# Measured values from patent publication US4599352A, “Antineoplastic platinum (IV) complexes and compositions” (priority 1984, dated 1986).
# Assays:
# [1] = test system: IP L1210/Cisplatin; assay: Activity against IP-implanted L1210/Cisplatin leukemia resistant to cisplatin, 30 day test (Table 3); type: in vivo, Female CD2Fl mice
# Procedure: (§1) Biological properties of the compounds of the present invention were determined following the protocol described in Cancer Chemotherapy Reports, Vol. 3, No. 3, 1972 which report is incorporated herein by reference.
# Other known mechanisms of resistance for other classes of agents, such as gene amplification or target enzyme change or amplication, also need to be explored. The experiments summarized in Table 3 were conducted at the same time against both sublines using the same drug preparations. […] These experiments were repeated in a second laboratory as documented in Table 4. However, in these experiments the animals were held for 60 rather than 30 days to evaluate whether or not long-term survivors are produced after drug treatment in a more challenging setting.
# This experiment (A8-00005 3LE31) was conducted at the Southern Research Institute, Birmingham, Ala. under the supervision of Dr. Daniel Griswold. The protocols were the same as those published previously (Geran et al., Cancer Chemotherapy Reports 3: No. 2, 1972 [Attachment 11]). 10^5 cells were implanted intraperitoneally in CD2Fl male mice on Day 0. Drug treatments were given intraperitoneally as single injections at the doses indicated on Days 1, 5 and 9 after tumor implantation. The diluent was saline except for NSC-271674 where 5% sodium bicarbonate was used. All drugs were prepared fresh on the day of injection, and all were administered in solution. Median survival times for both control and drug-treated mice were determined and expressed as a percentage (% T/C). Body weights were determined on Day 5 and expressed as a weight difference (body weight of the drug-treated animals minus that of the control animals in grams) (T-C). The diluent control animals lived a median of 8.4 days and gained 1.9 grams by Day 5 in this experiment. All animals, including Day 30 survivors, were used in the calculation of median survival times. The log10 change in tumor burden refers to the net log change in viable tumor cell population at the end of therapy (Rx) as compared to the start of therapy; e.g., a […] means that there was a […] and a 3 log change means there was a 1000-fold increase in tumor burden at the end of therapy. The tumor burden at the start of therapy was about 6.1×10^5 cells in this experiment. […]
# [2] = test system: SC Implanted L1210 Leukemia; assay: Activity against SC implanted L1210 leukemia following intravenous administration, once daily Days 1-5 (Table 5); type: in vivo, CD2Fl male mice
# Procedure: as §1
# In another type of experiment the same platinum complexes were directly compared against the SC implanted L1210 following intravenous administration (Table 5).
# This experiment (A8-00004 3LE32) was conducted at the Southern Research Institute, Birmingham, Ala. under the supervision of Dr. Daniel Griswold. The protocols were the same as those published previously (Attachment 11). 10^6 cells were implanted subcutaneously in CD2Fl male mice on Day 0. Drug treatments were given intravenously once daily at the doses indicated on Days 1-5 after tumor implantation. The dosage range tested included the highest and lowest doses indicated in the Table as well as intermediate values which were determined by multiplying each dose in turn by 0.5 starting with the highest dose. The diluent was saline except for NSC-271674 for which 5% sodium bicarbonate was used. All drugs were prepared fresh on the day of injection, and all were administered in solution. Median survival times for both control and drug-treated mice were determined and expressed as a percentage (% T/C). Body weights were determined on Day 5 and expressed as a weight difference (body weight of the drug-treated animals minus that of the control animals in grams) (T-C).
# [3] = test system: bacteriophage lambda (lambda-lac Z fusion prophage); assay: Biochemical phage induction assay (BIA), induction of bacteriophage lambda (FIG. 1); type: cell-based, E. coli (BR 513)
# Procedure: The platinum complexes are tested using the BIA quantitative tube assay for dose-dependent induction of bacteriophage lambda according to a previously published procedure of Sarma, D. et al. Chem. Biol. Interactions, 46: 219-232 (1983), which is incorporated herein by reference. A permeable strain of E. coli (BR 513) containing lambda phage is used to test all samples. Expression time for the assay is 5 hours at 38° C. Fresh dilutions of test samples are made in saline (0.85%) on the day of the experiment. Samples are made at 10×final concentration and dispensed according to assay procedure. Final concentrations are 300 μg/ml, 200 μg/ml, 100 μg/ml, 60 μg/ml, 25 μg/ml, 10 μg/ml and a zero control.
# This strain of bacteria contains a chromosomally integrated lambda-lac Z fusion phage under control of the lambda repressor. Treatment with DNA-damaging agents leads to derepression of prophage and synthesis of β-galacto-sidase, product of the lac Z gene. β-galactosidase is detected by reaction with a substrate (O-nitrophenyl-D-galactopyranoside (ONPG)) to give a yellow-colored product. Tubes are incubated at 28° C. (a few minutes to several hours to an A420 ≈0.5-1.0). Color development is stopped by the addition of base (1M Na2 CO3), and the yellow color is measured by absorbance at 420 nm. The exact time required for color development is recorded. Enzyme Units=100 A420 /thr where A420 =absorbance at 420 nm; thr =time required to develop yellow color in hours. One enzyme unit is the approximate value of an uninduced control tube at zero time.
# This assay detects a wide variety of compounds which interact with DNA. […] This finding may support the hypothesis that platinum IV complexes are chemically less reactive. However, in vivo there is evidence that platinum IV complexes may be reduced to platinum (II) complexes [Pendyala, L. Proceedings 13th International Cancer Congress, Seatle, Wash., #3034, page 531, (1982)]. […] It is noted that the four isomers are not equal in their ability to induce the prophage.
# [4] = test system: IP-Implanted L1210/Cisplatin; assay: Comparison of isomers: long term survivors and weight differences in treating IP-implanted L1210/Cisplatin (Table 6); type: in vivo, mice
# Excerpt: Comparative data for the others are as follows: 27 for trans d, 27 for trans d l and 13 for cis. […] The higher the ratio the more convenient it is to prepare a formulation for intravenous administration to patients which is shown in Table 7.
# [5] = test system: L1210 and L1210/Cisplatin leukemia; assay: Total number of long-term survivors in Tables 2-4; type: in vivo, CD2Fl mice; details: Tables 2-4 summed
# Excerpt: If one summarizes the data in Tables 2-4 by totalling the number of long-term survivors, unexpected differences among the isomers become apparent. For example, the trans l compound produced 30 long-term survivors.
# [6] = test system: IP L1210 leukemia; assay: Mouse optimal (highest tolerated) dose, IP L1210 leukemia, Days 1, 5 and 9 schedule (Table 7); type: in vivo
# Excerpt: *IP L1210 leukemia, Days 1, 5 and 9 schedule. Highest tolerated dose in a
# least 2 of 3 experiments (i.e,. animal weight difference (testcontrol)
Compound,30 Day Survivors/Total ([1]; 1 mg/kg/dose),Approx. Log10 Change in Tumor Burden at End of RX ([1]; 1 mg/kg/dose) [log10],Median % T/C ([1]; 1 mg/kg/dose) [%],30 Day Survivors/Total ([1]; 2 mg/kg/dose),Approx. Log10 Change in Tumor Burden at End of RX ([1]; 2 mg/kg/dose) [log10],Median % T/C ([1]; 2 mg/kg/dose) [%],30 Day Survivors/Total ([1]; 4 mg/kg/dose),Approx. Log10 Change in Tumor Burden at End of RX ([1]; 4 mg/kg/dose) [log10],Median % T/C ([1]; 4 mg/kg/dose) [%],30 Day Survivors/Total ([1]; 8 mg/kg/dose),Approx. Log10 Change in Tumor Burden at End of RX ([1]; 8 mg/kg/dose) [log10],Median % T/C ([1]; 8 mg/kg/dose) [%],30 Day Survivors/Total ([1]; 16 mg/kg/dose),Median % T/C ([1]; 16 mg/kg/dose) [%],Optimal Dose ([2]; IV once daily Days 1-5) [mg/kg/inj],Concentration of optimal effect in prophage induction [3] [µg/mL],Effectiveness in inducing prophage [3],"Prophage induction, enzyme units [3]",Total Grams of Weight Difference [4] [Grams],Total number of long-term survivors [4],other results
"[Cl][Pt-2]1([Cl])([Cl])([Cl])[NH2+][C@@H]2CCCC[C@H]2[NH2+]1 [trans (l), (1R,2R)-Tetrachloro-trans-1,2-cyclohexanediammine platinum (IV)]",0/6,~2.8,118,0/6,~2.5,137,5/6,~-5.9,322,5/6,~-5.9,322,0/6,89,2.5,50,most effective inducers among the four,about 104 enzyme units,-6.0,17,Approx. Log10 Change in Tumor Burden at End of RX ([1]; 16 mg/kg/dose): ~3.1 log10; Total number of long-term survivors [5]: 30; Mouse Optimal Dose (highest tolerated dose in at least 2 of 3 experiments) [6]: 8 mg/kg
"[Cl][Pt-2]1([Cl])([Cl])([Cl])[NH2+][C@H]2CCCC[C@@H]2[NH2+]1 [trans (d), (1S, 2S)-Tetrachloro-trans-1,2-cyclohexanediamine platinum (IV)]",0/6,~3.1,101,0/6,~2.8,116,0/6,~2.4,139,3/6,~-5.9,322,1/6,143,5.0,25,most effective inducers among the four,about 104 enzyme units,-11.9,11,Body Weight Difference ([2]; 5 mg/kg/inj IV): -6.4 Grams; Median % T/C ([2]; 5 mg/kg/inj IV): 172%; Median Survival Time ([2]; 5 mg/kg/inj IV): 17.8 days; HNTD (highest nontoxic dose; animal weight difference ≥ -4.0 grams) ([2]; IV once daily Days 1-5): 2.5 mg/kg/inj; Total number of long-term survivors [5]: 27; Mouse Optimal Dose (highest tolerated dose in at least 2 of 3 experiments) [6]: 8 mg/kg
